Reference: patent US5866562A, “Ring-bridged bis-quinolines” (Bayer Aktiengesellschaft, priority 1996, dated 1999)

Experiments:
[1] = system: apamine-sensitive rubidium efflux in PC12 cells (potassium channels); experiment: Non-radioactive Rb+ efflux assay for the identification of potassium channel modulators; assay type: cell-based; settings: Rattus norvegicus, PC-12, 10 min, at a test concentration of 10 μM, 50 mM KCl depolarization
Protocol: 2) Non-radioactive Rb^+ efflux assay for the identification of potassium channel modulators
The potassium in PC12 cells is exchanged with rubidium, which is not present in the cells. This exchange is performed by incubating the cells over a period of 4 h in a physiological buffer containing 5.4 mM RbCl without KCl. This rubidium subsequently serves as a tracer for potassium.
The cells laden with Rb^+ in this way are washed three times and then stimulated by depolarization with 50 mM KCl to open potassium channels (10 min), causing Rb^+ to flow out of the cells into the supernatant according to the concentration gradient.
The rubidium contents in the cell supernatant and in the residual cells after they have been lysed with 1% Triton X-100 are then determined by means of atomic absorption spectroscopy. The relative proportion of rubidium in the cell supernatant (=Rb^+ efflux) is used as a measure of the potassium channel activity.
The effect of substances on the channel activity is measured by co-incubating the test substance over the ten-minute stimulation period and determining its effect on the Rb^+ efflux in the manner described above.

[2] = biological target: apamine binding sites in bovine cerebral membranes (apamine-sensitive potassium channels); experiment: Binding of ^125 I-apamine to bovine cerebral membranes; settings: ^125 I-apamine 30 pM; calf hippocampus membranes; pH 7.4; 60 min on ice
Protocol: 1) Binding of ^125 I-apamine to bovine cerebral membranes
Calfbrains were obtained from the local abattoir. The hippocampus was prepared on ice and a membrane suspension was made up by homogenization twice in buffer (100 mM Tris-HCl, KCl 5 mM, pH 7.4) and centrifugation at 43,000×g. In a total volume of 500 μl, the incubation mixture contained 200 μg of membrane protein, 30 pM ^125 I-apamine and test substances in the concentration range 1×10^-9 to 1×10^-4 M. The non-specific binding of ^125 I-apamine was determined in the presence of 1×10^-7 M unlabelled apamine.
After preincubation for 30 min at room temperature (test substances and membrane homogenate), the samples were placed on ice for 10 min before the radioligand was added. The main incubation time was 60 min on ice. When the reaction time had elapsed, an excess of ice-cooled incubation buffer was added to each sample and the mixture was filtered with suction through cellulose acetate/nitrate membrane filters. The amount of bound ^125 I-apamine was measured with a gamma counter.

## Cc1cc(N2CCCN(c3cc(C)nc4cccc(O)c34)CC2)c2c(O)cccc2n1 [Example 7]
[1]
  inhibition at 10 µM: 58%

## c1ccc2c(N3CCCN(c4ccnc5ccccc45)CC3)ccnc2c1 [Example 1]
[2]
  Ki: 0.78 µM

## Cc1cc(N2CCCN(c3cc(C)nc4c(C)cccc34)CC2)c2cccc(C)c2n1 [Example 12]
[1]
  inhibition at 10 µM: 73%
[2]
  Ki: 0.035 µM
